Results reported in PubChem BioAssay (NCI).
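Compound exposure: 48 hours, 5 concentrations, 96-well plates. GI50 marks 50% less growth. TGI denotes the concentration required for complete inhibition of growth.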

Tests used:
Assay in all cases: NCI anticancer screen, dose series, 48 h
[1] = tested on: CCRF-CEM leukemia
[2] = tested on: LOX IMVI melanoma
[3] = tested on: M14 melanoma
[4] = tested on: MDA-MB-231 breast
[5] = tested on: RPMI-8226 leukemia
[6] = tested on: SF-268 CNS
[7] = tested on: SF-539 CNS
[8] = tested on: SK-MEL-28 melanoma
[9] = tested on: TK-10 renal
[10] = tested on: SR leukemia

| Compound | GI50 [1] [µM] | TGI [1] [µM] | GI50 [2] [µM] | TGI [2] [µM] | GI50 [3] [µM] | TGI [3] [µM] | GI50 [4] [µM] | TGI [4] [µM] | GI50 [5] [µM] | TGI [5] [µM] | GI50 [6] [µM] | TGI [6] [µM] | GI50 [7] [µM] | TGI [7] [µM] | GI50 [8] [µM] | TGI [8] [µM] | GI50 [9] [µM] | TGI [9] [µM] | GI50 [10] [µM] | TGI [10] [µM] |
| --- | --- | --- | --- | --- | --- | --- | --- | --- | --- | --- | --- | --- | --- | --- | --- | --- | --- | --- | --- | --- |
| CC(C)c1ccc(-c2cc(-c3cn[nH]c3-c3ccccn3)ccn2)cc1 | 10.8 | > 25 | 14.6 | > 25 | 14.4 | > 25 | > 16.5 | > 25 | 11.9 | > 25 | 14.9 | > 25 | 25 | > 25 | > 25 | > 25 | > 18.6 | > 25 |  |  |
| O=C1C2C3C=C4c5ccccc5N(c5ccccc5)C4(C2C(=O)N1c1ccc([N+](=O)[O-])cc1)[C@H]1C(=O)N(c2ccc([N+](=O)[O-])cc2)C(=O)[C@@H]31 (stereo partly specified) |  | > 100 |  | > 100 |  | > 100 |  |  |  | > 100 |  | > 100 |  | > 100 |  | > 100 |  | > 100 |  |  |
| O=C1/C(=C(/c2ccccc2)N2CCOCC2)Cc2ccccc21 | 0.467 | 2.67 | 0.92 | 2.52 | 1.84 | 4.67 | 2.3 | 5.48 | 0.522 |  | 2.29 | 6.35 | 1.9 | 3.91 | 1.45 | 2.85 | 1.29 | 2.66 |  |  |
| COc1cc2c3c(n(CCCN)c(=O)c2cc1OC)-c1ccc(C#N)cc1C3=O | 6.44 | 31.7 | 13.6 | 30 | 15.3 | 31.6 | 14.3 | 29.3 | 19.1 | 41.5 | 14.7 | 42.4 |  |  | 18.5 | 35.7 | 16.9 | 41.3 |  |  |
| c1ccc(C2N3CCCCC3[C@@H]3c4[nH]c5ccccc5c4CCN23)nc1 (stereo partly specified) |  | > 100 |  |  |  | > 100 |  |  |  | > 100 |  | > 100 |  | > 100 |  | > 100 |  | > 100 |  |  |
| CC1(C)C(=O)/C(=C\c2cccnc2)C[C@]2(C)[C@H]3CC[C@@H]4[C@H]5[C@H](C(=O)/C=C/c6cccnc6)CC[C@]5(C(=O)O)CC[C@@]4(C)[C@]3(C)CC[C@@H]12 | 1.44 | 8.07 | 1.74 | 3.6 | 2.64 | 8.97 |  |  | 1.88 | 7.28 | 2.15 | 5.46 | 1.9 | 3.92 | 2.16 | 4.39 | 3.57 | 10.9 | 2.03 | 29.7 |
| [N-]=[N+]=C1C(=O)NN=C1c1ccccc1 |  | > 100 |  | > 100 |  | > 100 |  |  |  | > 100 |  | > 100 |  | > 100 |  | > 100 |  | > 100 |  | > 100 |
| CCOC(=O)C1SC(=Nc2ccc(C)c(C)c2)N=C1C (stereo unspecified) |  | > 100 |  | > 100 |  | > 100 |  |  |  | > 100 |  | > 100 |  | > 100 |  | > 100 |  | > 100 |  | > 100 |
| Cc1cc(N(CCC#N)CCC#N)ccc1/C=C(\NC(=O)/C=C/c1ccccc1)C(N)=O |  | > 100 |  | > 100 |  | > 100 |  |  |  | > 100 |  | > 100 |  | > 100 |  | > 100 |  | > 100 |  |  |
| CCOC(=O)C(=O)Nc1ccccc1CC |  | > 100 |  | > 100 |  | > 100 |  |  |  | > 100 |  | > 100 |  | > 100 |  | > 100 |  | > 100 |  |  |
| O=C1c2ccccc2C(=O)C1(O)c1c[nH]c2ccccc12 |  | > 100 |  | > 100 |  | > 100 |  |  |  | > 100 |  | > 100 |  | > 100 |  | > 100 |  | > 100 |  | > 100 |
| C=C(C)CCN[Si](c1ccccc1)(c1ccccc1)C(C)(C)C |  | 66.4 |  | 31.7 |  | 34.4 |  |  |  | 62.2 |  | 98 |  | 29.1 |  | 42.7 |  | 68.3 |  |  |
| CCOC(=O)CCC(=O)C1c2cccc(O)c2C(=O)c2c(O)cc(C)cc21 (stereo unspecified) |  | 2.75 |  | 1.97 |  | 2.71 |  |  |  | 5.77 |  |  |  | 0.535 |  | 2.92 |  | 3.39 |  | 4.25 |
| COC(=O)C(CC(=O)Nc1ccc(C)cc1)C(=O)C(=O)Nc1c(C(C)C)cccc1C(C)C (stereo unspecified) |  | > 100 |  | > 100 |  | > 100 |  |  |  | > 100 |  | > 100 |  | > 100 |  | > 100 |  | > 100 |  |  |
| COc1cc2c(cc1OCCCCC(=O)Nc1cc3c4ccccc4ccc3c3ccccc13)N=C[C@@H]1CCCN1C2=O | 1.55 | > 100 | 32.1 | > 100 | 8.1 | 33 | 1.06 | 17 | 1.11 |  | 2.67 | 15 | 2.22 | 9.06 | 3.41 | 12.2 | 2.33 | 5.73 |  |  |
| CC12OC(C(=O)C13CC3)C1C(=O)c3ccc4c(ccc5ccccc54)c3C(=O)C12 (stereo unspecified) | 29.5 | > 100 |  |  | 25.2 | 95 | 13 | 77.9 |  |  | 26.5 | 86.1 | 32.2 | > 100 | 66.3 | > 100 | 37.1 | > 100 |  |  |
| CCOC(=O)N[C@@H]1C(CC(=O)OC)O[C@H]2OC(C)(C)O[C@H]21 (stereo partly specified) |  | > 100 |  | > 100 |  | > 100 |  |  |  | > 100 |  | > 100 |  | > 100 |  | > 100 |  |  |  |  |
| CC(=O)O[C@H]1CCC2[C@@H]3CC[C@]4(C)CC(=O)C=C[C@]4(C)C3CC[C@@]21C (stereo partly specified) |  | 57.9 |  | 30.9 |  | 34.1 |  | 77.9 |  | 61.5 |  | 43.8 |  | 31.8 |  | 33.9 |  | > 100 |  |  |
| Clc1cc(Cl)c2ns[s+]c2c1Cl |  | > 100 |  | > 100 |  | > 100 |  |  |  |  |  | > 100 |  | > 100 |  | > 100 |  | > 100 |  | > 100 |
